The test system of assay [1] is immature schistosomes. Conditions: as reported in the literature (Non Patent Literature 1); cited from earlier work.
Assay [2] concerns schistosomes (Schistosoma mansoni). Kind of assay: Number of schistosomes and number of eggs produced per adult female schistosome (Experimental Example 2). Format: in vivo. As to conditions: infected BALB/c mice, oral, measured on Week 9. As to the method:
100 μl of the antischistosomal agent of the present invention were orally administered to mice (BALB/c mice, 5-week-old) infected with schistosomes (Schistosoma mansoni) in accordance with a drug dosage regimen of FIG. 4. As a control, 100 μl of olive oil was administered. On Week 9 after the infection, the mice were sacrificed with an overdose of anesthetic, and the number of schistosomes recovered and the number of eggs produced per adult female schistosome were measured. The number of schistosomes was measured in the same manner as in Experimental Example 1, and the number of eggs produced was also counted under a microscope.

The test system is the same in assay [3]. Description: Macroscopic findings on liver lesions in schistosome-infected mice (Experimental Example 3). Conditions: infected BALB/c mice, viscera observed macroscopically. Format: in vivo.
Assay [4] has the same test system. Description: Number of schistosomes in vivo (Experimental Example 1). As to conditions: infected BALB/c mice, oral, administered on Days 14 and 15 after the infection, counted on Week 6 after the infection. As to the method: 100 μl of the antischistosomal agent of the present invention were orally administered to mice (BALB/c mice, 5-week-old) infected with schistosomes (Schistosoma mansoni) in accordance with a drug dosage regimen of FIG. 2. As a control, 100 μl of olive oil was administered. On Week 6 after the infection, the mice were sacrificed with an overdose of anesthetic, and the number of schistosomes recovered was counted under a microscope.

Setting [5] is: administration on each of Weeks 5 to 7 after the infection.

The text below walks through data of US8927596B2, “Antischistosomal agent” (National University Corporation Okayama University, priority 2008, dated 2015).

As to `O=C(C1CCCCC1)N1CC(=O)N2CCc3ccccc3C2C1` (stereo not shown) [praziquantel], in assay [1], the “effect on schistosomes at the immature stage” value is “not effective”.

Take `C1CCCCCC2(CCCCC1)OOCCCOO2` [antischistosomal agent, 1,2,6,7-tetraoxaspiro[7.11]nonadecane]: the “number of eggs produced reduced” value in assay [2] (administration on Week 5 only after the infection) is reported as 87%. In assay [2] (setting [5]), the “number of eggs produced per adult female schistosome reduced as compared to the olive oil administration group” value is on record as 98% and the “number of schistosomes as compared to the olive oil administration group” value is listed as “not significantly reduced”. Moreover, the “liver lesions due to eggs of schistosomes (macroscopic)” value in assay [3] (administered on Week 5 after the infection) was “few liver lesions”. Besides, in assay [3], the enlargement of spleen entry was “inhibited”. The “number of schistosomes reduced as compared to the olive oil administration group” value in assay [4] is 86%.
